Assay results: US20210318318A1, “Kinase Activity In Tumors” (Institute For Cancer Research d/b/a The Research Institute …, priority 2018, published 2021)

Experiments:
Type in all cases: cell-based, human
[1] = test system: OVCAR4 cells; assay: Drug growth inhibition in cells depleted of dark kinases by siRNA (Cell Titer Glo); conditions: increasing doses of drug
Procedure: OVCAR4 cells were transfected with control nontargeting or dark kinase siRNAs and treated with escalating doses of appropriate drugs.
To explore if blocking dark kinases AAK1, STK38 or MRCKA activity in combination with current therapies improves drug efficacy, OVCAR4 cells depleted of AAK1, STK38 or MRCKA were treated with increasing doses of carboplatin, olaparib, JQ1, or a variety of kinase inhibitors in clinical trials for HGSOC.
siRNA transfections were performed using 25 nM siRNA duplex and the reverse transfection protocol. 3000-5000 cells per well were added to 96 well plates with media containing the siRNA and transfection reagent (Lipofectamine RNAiMax) according to the manufacturer's instructions. In experiments where inhibitors were used, the inhibitor was added at the time of transfection. Cells were allowed to grow for 72-120 hours post-transfection prior to CellTiter Glo (Promega) analysis. Two-to-three independent experiments were performed with each cell line and siRNA. Students t tests were performed for statistical analyses and p values ≤0.05 were considered significant. For western blot studies, the same procedure was performed with volumes and cell numbers proportionally scaled to a 60 mm or 10 cm dish, and cells were collected 24-72 hours post-transfection. siRNA product numbers and manufacturers are listed in Table 5.

[2] = test system: OVCAR4; assay: Short-term growth assay (CellTiter-Glo cell viability), kinase inhibitors
Procedure: (§1) Cell viability was determined by Cell Titer Glo analysis.
(§2) To explore the therapeutic potential of the HGSOC kinome signature, a detailed molecular analysis of protein levels/activity, growth and survival functions was carried out in a panel of recently validated HGSOC cell lines (Coscia et al., Nat. Commun., 2016, 7, 12645) that harbor commonly encountered HGSOC mutations and genetic rearrangements (see, FIG. 5A).
(§3) For short-term growth assays, 3000-5000 cells were plated per well in 96-well plates and allowed to adhere and equilibrate overnight. Drug was added the following morning and after 120 hours of drug treatment, cell viability was assessed using the CellTiter-Glo Luminescent cell viability assay according to manufacturer (Promega). Students t tests were performed for statistical analyses and p values ≤0.05 were considered significant. For colony formation assays, cells were plated in 24-well dishes (3000-5000 cells per well) and incubated overnight before continuous drug treatment for 14 days, with drug and media replaced twice weekly. At the end of treatment, cells were rinsed with PBS and fixed with chilled methanol for 10 minutes at −20° C. Methanol was removed by aspiration, and cells were stained with 0.5% crystal violet in 20% methanol for 20 minutes at room temperature, washed with distilled water, and scanned.

[3] = test system: OVSAHO; assay: as above
Procedure: as §1, §2, §3

[4] = test system: Kuramochi; assay: as above
Procedure: as §1, §2, §3

[5] = test system: SNU-119; assay: as above
Procedure: as §1, §2, §3

[6] = test system: COV362; assay: as above
Procedure: as §1
COV362 cells were treated with increasing concentrations of A-674563 and cell viability assessed by Cell Titer Glo according to manufacturer's instructions. Data represent the mean of six replicates.
as §2, §3

CS(=O)(=O)N1CCN(Cc2cc3nc(-c4cccc5[nH]ncc45)nc(N4CCOCC4)c3s2)CC1 [GDC-0941]
growth inhibition by drug combined with knockdown of STK38 [1]: improved growth inhibition

NC1(c2ccc(-c3nc4ccn5c(=O)[nH]nc5c4cc3-c3ccccc3)cc2)CCC1 [MK2206]
Kinase inhibition profile of HGSOC cells (growth inhibition, Cell Titer Glo) ([2]; drug 0.625 uM): 0.9771 | Kinase inhibition profile of HGSOC cells (growth inhibition, Cell Titer Glo) ([3]; drug 0.625 uM): 0.6233 | Kinase inhibition profile of HGSOC cells (growth inhibition, Cell Titer Glo) ([4]; drug 0.625 uM): 0.4701 | Kinase inhibition profile of HGSOC cells (growth inhibition, Cell Titer Glo) ([5]; drug 0.625 uM): 0.9728 | Kinase inhibition profile of HGSOC cells (growth inhibition, Cell Titer Glo) ([6]; drug 0.625 uM): 0.8254

AZD4547
Kinase inhibition profile of HGSOC cells (growth inhibition, Cell Titer Glo) ([2]; drug 5 uM): 0.5989 | Kinase inhibition profile of HGSOC cells (growth inhibition, Cell Titer Glo) ([3]; drug 5 uM): 0.4351 | Kinase inhibition profile of HGSOC cells (growth inhibition, Cell Titer Glo) ([4]; drug 5 uM): 0.7095 | Kinase inhibition profile of HGSOC cells (growth inhibition, Cell Titer Glo) ([5]; drug 5 uM): 0.738 | Kinase inhibition profile of HGSOC cells (growth inhibition, Cell Titer Glo) ([6]; drug 5 uM): 0.5474

CCS(=O)(=O)N1CCN(c2ccc(Nc3ncc(C(N)=O)c(NC4CC4)n3)cc2)CC1 [Cerdulatinib]
Kinase inhibition profile of HGSOC cells (growth inhibition, Cell Titer Glo) ([2]; drug 2.5 uM): 0.5051 | Kinase inhibition profile of HGSOC cells (growth inhibition, Cell Titer Glo) ([3]; drug 2.5 uM): 1 | Kinase inhibition profile of HGSOC cells (growth inhibition, Cell Titer Glo) ([4]; drug 2.5 uM): 1 | Kinase inhibition profile of HGSOC cells (growth inhibition, Cell Titer Glo) ([5]; drug 2.5 uM): 0.8395 | Kinase inhibition profile of HGSOC cells (growth inhibition, Cell Titer Glo) ([6]; drug 2.5 uM): −0.008256

COc1cc2c(Oc3ccc4[nH]c(C)cc4c3F)ncnc2cc1OCCCN1CCCC1 [Cederinib]
Kinase inhibition profile of HGSOC cells (growth inhibition, Cell Titer Glo) ([2]; drug 1.2 uM): 1.089 | Kinase inhibition profile of HGSOC cells (growth inhibition, Cell Titer Glo) ([3]; drug 1.2 uM): 1.089 | Kinase inhibition profile of HGSOC cells (growth inhibition, Cell Titer Glo) ([4]; drug 1.2 uM): 0.9466 | Kinase inhibition profile of HGSOC cells (growth inhibition, Cell Titer Glo) ([5]; drug 1.2 uM): 0.6258 | Kinase inhibition profile of HGSOC cells (growth inhibition, Cell Titer Glo) ([6]; drug 1.2 uM): 0.9246

CC(=O)c1c(C)c2cnc(Nc3ccc(N4CCNCC4)cn3)nc2n(C2CCCC2)c1=O [Palbociclib]
Kinase inhibition profile of HGSOC cells (growth inhibition, Cell Titer Glo) ([2]; drug 5 uM): 0.7952 | Kinase inhibition profile of HGSOC cells (growth inhibition, Cell Titer Glo) ([3]; drug 5 uM): 0.6956 | Kinase inhibition profile of HGSOC cells (growth inhibition, Cell Titer Glo) ([4]; drug 5 uM): 0.09321 | Kinase inhibition profile of HGSOC cells (growth inhibition, Cell Titer Glo) ([5]; drug 5 uM): 0.5867 | Kinase inhibition profile of HGSOC cells (growth inhibition, Cell Titer Glo) ([6]; drug 5 uM): 0.92

NC(=O)Nc1cc(-c2cccc(F)c2)sc1C(=O)N[C@H]1CCCNC1 [AZD7762]
Kinase inhibition profile of HGSOC cells (growth inhibition, Cell Titer Glo) ([2]; drug 0.312 uM): 0 | Kinase inhibition profile of HGSOC cells (growth inhibition, Cell Titer Glo) ([3]; drug 0.312 uM): 0.7988 | Kinase inhibition profile of HGSOC cells (growth inhibition, Cell Titer Glo) ([4]; drug 0.312 uM): 0.663 | Kinase inhibition profile of HGSOC cells (growth inhibition, Cell Titer Glo) ([5]; drug 0.312 uM): 0 | growth inhibition by drug with MRCKA knockdown relative to non-targeting control siRNA [1]: enhanced growth inhibition | Kinase inhibition profile of HGSOC cells (growth inhibition, Cell Titer Glo) ([6]; drug 0.312 uM): 0.05872

CNCc1ccc(-c2cc(-c3nc(-c4ccc(S(=O)(=O)C(C)C)cc4)cnc3N)on2)cc1 [VX-90]
Kinase inhibition profile of HGSOC cells (growth inhibition, Cell Titer Glo) ([2]; drug 0.625 uM): 0.2646 | Kinase inhibition profile of HGSOC cells (growth inhibition, Cell Titer Glo) ([3]; drug 0.625 uM): 0.5885 | Kinase inhibition profile of HGSOC cells (growth inhibition, Cell Titer Glo) ([4]; drug 0.625 uM): 0.6083 | Kinase inhibition profile of HGSOC cells (growth inhibition, Cell Titer Glo) ([5]; drug 0.625 uM): 0.51 | Kinase inhibition profile of HGSOC cells (growth inhibition, Cell Titer Glo) ([6]; drug 0.625 uM): 0.3346

CNc1ncc2cc(-c3cc(NC(=O)NCCC(C)(C)C)c(F)cc3C)c(C)nc2n1 [LY300]
Kinase inhibition profile of HGSOC cells (growth inhibition, Cell Titer Glo) ([2]; drug 1.2 uM): 0.6062 | Kinase inhibition profile of HGSOC cells (growth inhibition, Cell Titer Glo) ([3]; drug 1.2 uM): 0.166 | Kinase inhibition profile of HGSOC cells (growth inhibition, Cell Titer Glo) ([4]; drug 1.2 uM): 0.09151 | Kinase inhibition profile of HGSOC cells (growth inhibition, Cell Titer Glo) ([5]; drug 1.2 uM): 0.6599 | Kinase inhibition profile of HGSOC cells (growth inhibition, Cell Titer Glo) ([6]; drug 1.2 uM): 0.2612
